# Key:
# [1] = test system: Sprague-Dawley male rats; format: in vivo, rat; conditions: absorption enhancer in insulin formulation, pulmonary administration
# Experimental: Sprague-Dawley male rats weighted 200-250 g were randomly divided into 7 groups. […] Group 1 was the control group, wherein each rat was administered with Formulation A only.
# After administering the formulations to the lung for 0, 5, 15, 30, 60, 90, 120, 180, 240, and 300 minutes, 0.25 ml of blood sample was collected from each rat. After the pulmonary administration for 5 hours, an excess amount of pentobarbital sodium (3 ml) was injected into the femoral artery of the rats. After 5 minutes, the rats were bled and then pulmonary perfusion with phosphate buffer solution was performed.
# The collected first 5 ml pulmonary perfusion samples were centrifuged at 350×g in 4° C. for 10 minutes. […]
# Based on the pigmentation principle of Biuret reaction (British Pharmacopoeia, p. A23 (1998)), the amount of total protein was determined by measuring the value of OD546 with Autoanalyzer Hitachi 7150; then, the value was converted into the concentration of the protein (the results are shown in Table 3).
# Based on the standard operation procedures of the GSCC (German Society of Clinical Chemistry; Recommendation of the German Society for Clinical Chemistry: Z. Klin. Chem. Klin. Biochem., 10, 287-288, 1972), the activity of LDH was determined by measuring the change of OD340 with Autoanalyzer Hitachi 7150; then, the change was converted into the activity of LDH (the results are shown in Table 3).
# [2] = test system: Sprague-Dawley male rats; experiment: In vivo bioavailability study: plasma glucose decrease after pulmonary administration to rats; set-up: species or system rat; conditions: enhancer added to insulin formulation
# Experimental: Sprague-Dawley male rats weighted 200-250 g were randomly divided into 7 groups. According to the method disclosed in Enna, S. T. et al. (J. Physiol., 1972, 222: 409-414), after the rats were narcotized by abdominally injecting pentobarbital sodium (28.6 ml/kg), catheters were inserted into the trachea and the left femoral artery, respectively, from the cut neck. Group 1 was the control group, wherein each rat was administered with Formulation A only.
# The collected blood samples were centrifuged at 3000 rpm in 4° C. for 15 minutes. The upper layer of the plasma was collected. […] The concentrations of insulin in the upper layer samples of plasma were determined by the utilization of a Rat Insulin ELISA Kit (Mercodia), and the pharmacokinetic parameters of the absorption enhancers were further analyzed.
Molecule,toxic side effects in the lung [1],"bioavailability of insulin, maximal increase by addition of absorption enhancer [2]"
CCCCCCCC/C=C\CCCCCCCC(=O)OCCOCC(OCCO)C1OCC(OCCO)C1OCCO (stereo not drawn) [Tween-80],would not induce toxic side effects in the lung,84.6%
LPTC-lauroyl [L-LPTC],would not induce toxic side effects in the lung,

# Reference: patent US8058236B2, “Aqueous inhalation pharmaceutical composition” (Development Center for Biotechnology, priority 2005, dated 2011)
